{"source": "patent US20090010902A1", "about": "(priority 2007, published 2009)", "key": {"[1]": {"tested_on": "TLR4 mRNA in human intestinal tract epithelial cell strain HT-29", "format": "cell-based"}, "[2]": {"tested_on": "TLR4 protein", "conditions": "summary statement; no method described"}}, "data": [{"smiles": "CCCC(=O)O", "note": "[butyric acid]", "values": [{"measurement": "TLR4 mRNA expression (result in words)", "setting": "[1]", "value": "similarly reduced"}, {"measurement": "expression amount of TLR4 protein (result in words)", "setting": "[2]", "value": "reduced"}]}]}
